In patent publication US10138292B2, “Cell culture medium” (BIOLAMINA AB, priority 2010, dated 2018):

Tests used:
human ES cells = assay: Long-term culture with single cell dissociation passaging (Example 1); type: cell-based
Description: Human ES cells were cultured on r-laminin-521-coated laboratory dishes in chemically defined O3 medium (described in Rodin et al., Nature Biotechnol., vol. 28, pp. 611-615 (2010)) at 37° C. in 5% CO2. Cells were routinely passed once every 10-12 days by exposure to Trypsin-EDTA solution (GIBCO Invitrogen) for 5 minutes at 37° C. They were then gently pipetted to break into single-cell suspension and defined trypsin inhibitor (GIBCO Invitrogen) was added. The cell suspension was centrifuged […], the supernatant discarded, the cell pellet resuspended in prewarmed O3 medium, and cells were then passed through a 40 μm sieve. After that cells were plated on new r-laminin-521-coated dishes at a concentration 30 Kcells/cm^2 (1:25-1:30 split ratio). Cells were fed once a day with fresh medium prewarmed in an incubator for 1 hour, except for the first day after a passage, when only a few drops of fresh medium were added. Control cells of the same line were cultured on Matrigel (BD Biosciences) in O3 medium as described in Rodin et al., Nature Biotechnol., vol. 28, pp. 611-615 (2010). Control cells were passaged in pieces.

[1] = tested on: human embryonic stem cells; assay: Survival of dissociated human embryonic stem cells one day after plating on precoated dishes; type: cell-based; conditions: single cell suspension, O3 medium, 30 Kcells/cm^2
Source text: In other aspects, the present disclosure provides a new material, isolated laminin-521, which permits human embryonic stem cell survival after dissociation into single cell suspension. The stem cells were dissociated into single cell suspension by Trypsin-EDTA treatment, pelleted by centrifugation, resuspended into O3 medium, filtered through a 40 μm sieve, and plated at a density of 30 Kcells/cm^2 on cell culture dishes precoated by either isolated laminin-521, laminin-511, or Matrigel. After one day in culture, the cells plated on Matrigel died, as is known in the art.

hES cell lines = assay: Karyotyping; type: cell-based, human; conditions: HS181 12 passages and H1 10 passages in O3 medium; H1 7 passages in TeSR2
Description: Karyotyping of the cell lines was carried out using standard Q-banding techniques. Samples of cells were treated with colcemid KaryoMAX (0.1 μg/ml; Gibco Invitrogen Corporation) for up to 4 hours, followed by dissociation with Trypsin/EDTA solution (Gibco Invitrogen Corporation). The cells were pelleted via centrifugation and re-suspended in pre-warmed 0.0375 M KCl hypotonic solution and incubated for 10 minutes. Following centrifugation, the cells were resuspended in fixative (3:1 methanol:acetic acid). Metaphase spreads were prepared on glass microscope slides and G-banded by brief exposure to trypsin and stained with 4:1 Gurr's/Leishmann's stain (Sigma-Aldrich Co.). A minimum of 10 metaphase spreads were analyzed and additional 20 were counted.

OCT4 = assay: FACS analysis for OCT4; type: cell-based, human; conditions: after several single cell suspension passages, O3 medium
Description: OCT4 expression was analyzed as described in Ludwig, T. E. et al. Derivation of human embryonic stem cells in defined conditions. Nat. Biotechnol. 24, 185-187 (2006). Cells were run on FACSCalibur Flow Cytometer (Becton Dickinson). Data were analyzed with CellQuest software (Becton Dickinson).

Oct4 and Nanog mRNA = assay: Real-time quantitative RT-PCR of pluripotency markers (Example 1); type: cell-based, human; conditions: after several passages
Description: Total RNA was isolated and cDNA was synthesized as described in Rodin et al., Nature Biotechnol., vol. 28, pp. 611-615 (2010). Real-time quantitative RT-PCR Taqman assays were performed using the Applied Biosystems 7300 Real-Time PCR System. All reactions were done in quadruplicate with predeveloped gene expression assay mix (Applied Biosystems) containing primers and a probe for the mRNA of interest. Additional reactions for each experiment included predeveloped gene expression assay mix for GAPDH, used to normalize the RNA input. All data were analyzed with 7300 System SDS Software version 1.4.

Q: What does the source list for “LN-521: protein formed by joining α5, β2 and γ1 laminin chains; human recombinant, produced in HEK293 cells”?
A: increase in the number of cells versus time compared with Matrigel (human ES cells; LN-521 single cell passaging vs Matrigel clumps): much faster rate; passages with robust proliferation at stable and high rate (human ES cells; single cell suspension passaging every 10-12 days, 1:25 to 1:30 ratios (3 months)): at least 9 passages; survival after one day in culture [1]: survived; karyotype (hES cell lines): normal; percentage of Oct4 positive (pluripotent) cells compared with Matrigel (OCT4): much higher percentage; number of mRNA transcripts of Oct4 and Nanog compared with Matrigel (Oct4 and Nanog mRNA): higher numbers of transcripts
